Source: patent US20240139185A1, “COMPOUNDS THAT PARTICIPATE IN COOPERATIVE BINDING AND USES THEREOF” (Revolution Medicines, Inc., priority 2018, published 2024)

Assays:
[1] = target: T1, BRAF-GTP-KRAS-G12C complex (Homo sapiens, UniProt P01116+P62937, G12C); assay: KRAS-BRAF complex disruption through competition with CYPA-compound by TR-FRET; conditions: biochemical BRAF-KRAS G12C-GTP disruption assay EC50, with CYPA
T1 construct: 50 nM of His6-KRas G12C-GTP (1-169); 500 nM of tagless CypA (1-165)
Protocol: In this example, TR-FRET was used to measure the compound-facilitated disruption of a KRAS-BRAF complex. A mixture of tagless Cyclophilin A, His6-KRAS G12C-GMP-PNP, and GST-BRAF RAS binding domain was added to a 384-well assay plate containing compounds of the invention and incubated for 3 hours. A mixture of Anti-His Eu-W1024 and anti-GST allophycocyanin was then added and the reaction was incubated for an additional 1.5 hours. TR-FRET signal was read on an EnVision microplate reader (Perkin Elmer, Ex 320 nm, Em 665/615 nm). Compounds that facilitate disruption of a KRAS_BRAF complex were identified as those eliciting a decrease in the TR-FRET ratio relative to DMSO control wells. To determine the presenter-dependence of the compound-mediated KRAS-BRAF complex disruption, Cyclophilin A was left out of the initial incubation (see Table 5). To determine G12C specificity of the compound-mediated KRAS-BRAF complex disruption, wild-type KRAS was used instead of G12C KRAS (see Table 5).
Reagents and Instrument • Tagless CYPA; 519 μM in PBS buffer, pH 7.4 • GST BRAF; 110 μM in PBS buffer, pH 7.4 • His6-KRASG12C-GMP-PNP; 50 μM in PBS buffer, pH 7.4 • His6-KRASWT-GMP-PNP; 40 μM in PBS buffer, pH 7.4 • Anti-His Eu-W1024 (LANCE® Eu-W1024; Perkin Elmer) • Anti-GST allophycocyanin (Anti-GST IgG conjugated to SureLight®-Allophycocyanin; Perkin Elmer; Product Number AD0059G) • Test compounds, 10 mM in 100% DMSO • EnVision (Perkin Elmer) • Combi MultiDrop liquid dispenser with 8-channel small volume cassette • 384-well ProxiPlate (black)
Experimental Protocol • 1. Use Mosquito to dispense 100 nL/well of compounds (varying concentration in […]) into 384-well black ProxiPlate to make assay-ready-plate (ARP). • 2. Make assay buffer containing 25 mM Hepes pH 7.3, 100 mM NaCl, 5 mM MgCl2, 0.05% BSA, and 0.002% Tween-20. • 3. Make PRE-MIX A: delivers final concentrations of 50 nM of His6-KRas G12C-GTP (1-169) and 500 nM of tagless CypA (1-165) in assay buffer. • a. For presenter dependence experiments, omit addition of tagless CypA • b. For G12C/wt specificity experiments, substitute His6-KRas WT-GTP (1-169) for His6-KRas G12C-GTP (1-169) • 4. Use MultiDrop Combi to dispense PRE-MIX A into ARP, 7 μl/well. Incubate 3 hr at room temperature. • 5. Make PRE-MIX B: delivers final concentrations of 10 nM of anti-His Eu-W1024 and 50 nM of anti-GST APC. • 6. Use MultiDrop Combi to dispense PRE-MIX B into ARP, 3 μl/well. Shake briefly on Combi and incubate 1.5 hr at room temperature. • 7. Read on EnVision (Ex: 320 nm; Em1: 615 nm; Em2: 665 nm). • 8. Data is processed using Dotmatics. Curves are fit using a 4-parameter non-linear fit to determine the EC50 value for formation of the ternary complex.

cyclophilin A (CYPA) = cyclophilin A (CYPA) (Homo sapiens, UniProt P62937); assay: CYPA-compound binary complex formation by SPR; conditions: read-out: CYPA Binding Affinity
Protocol: In order to determine the affinity of compounds of the invention for cyclophilin A (CYPA), we employed surface plasmon resonance binding analysis using the following reagents, instruments and protocol as supplied by the instrument manufacturer.
Reagents and Instrument • 1. Instrument: Biacore S200 (GE Healthcare Life Sciences) • 2. Running buffer: 1×HBS-P+ (1×HBS supplemented with 0.05% Tween20), pH7.4, and 2% DMSO. • 3. Ligand: CypA-Avi • 4. Analyte: Serial dilution of WDB compounds from 50 μM to 0 μM, 2-fold dilution, 10 points (10 mM stock concentration). • 5. Sensor kit: Biotin CAPture Kit (BR28-9202-34, GE Healthcare Life Sciences) • 6. Regeneration buffer: 1 volume of 1 M NaOH and 3 volumes of 8 M guanidine hydrochloride (supplied with CAPture Kit, BR28-9202-34, GE Healthcare Life Sciences)
Experimental Procedure • 1. Capture of CAPreagent: 2 μl/min for 60 seconds. • 2. Immobilization of ligand CypA: Use Fc1 as the reference cell; immobilize CypA at 4 μg/ml using 5 μl/min flowrate on Fc2 (60s), Fc3 (80s) and Fc4 (80s), respectively. • 3. Binding of analytes: Inject WDB compound dilutions sequentially at 50 μl/min for association of 60 seconds. And then let it dissociates in buffer at 50 μl/min for 60 seconds. • 4. Regeneration: 2 injections of regeneration buffer at 30 μl/min for 60 seconds to regenerate the chip surface. • 5. Solvent correction: Run solvent correction at beginning and the end of the run. If run more than 6 compounds, add additional solvent correction every 6 compounds. • 6. Data fitting with built-in Biacore Evaluation Software: Steady-state fitting.

EC50 [1] [µM]	Kd (cyclophilin A (CYPA)) [µM]	SMILES
0.5 to 5	> 15	CC1CCn2cnc3ccc(cc32)-c2cc(O)cc(c2)CC(NC(=O)C(C(C)C)N(C)C(=O)C2CN(C(=O)CCl)C2)C(=O)N2CCCC(N2)C(=O)O1 (mixture of isomers) [Compound 140]
0.5 to 5	5 to 15	Cc1nc2ccc3cc2n1CC(O)COC(=O)C1CCCN(N1)C(=O)C(NC(=O)C(C(C)C)N(C)C(=O)C1CN(C(=O)CCl)C1)Cc1cc(O)cc-3c1 (mixture of isomers) [Compound 154]
0.5 to 5	> 15	CC1COC(=O)[C@@H]2CCCN(N2)C(=O)[C@@H](NC(=O)[C@H](C(C)C)N(C)C(=O)C2CN(C(=O)CCl)C2)Cc2cc(O)cc(c2)-c2ccc3c(C#N)cn(c3c2)C1 (single isomer, unassigned) [Compound 88]
> 5	≤ 5	C=CC(=O)N1CCN([C@H](C(=O)N[C@H]2Cc3cc(O)cc(c3)-c3ccc4nccc(c4c3)OCCOC(=O)[C@@H]3CCCN(N3)C2=O)C(C)C)C1=O [Compound 2, (2S)-2-(3-acryloyl-2-oxoimidazolidin-1-yl)-N-((6^3S,4S)-2^5-hydroxy-5,7-dioxo-6^1,6^2,6^3,6^4,6^5,6^6-hexahydro-8,11-dioxa-1(6,4)-quinolina-6(1,3)-pyridazina-2(1,3)-benzenacycloundecaphane-4-yl)-3-methylbutanamide]
> 5	5 to 15	C=CC(=O)N1CCN([C@H](C(=O)N[C@H]2Cc3cncc(c3)-c3ccc4nc(CC)n(c4c3)CCCOC(=O)[C@@H]3CCCN(N3)C2=O)C(C)C)C1=O [Compound 4, (2S)-2-(3-acryloyl-2-oxoimidazolidin-1-yl)-N-((6^3S,4S)-12-ethyl-5,7-dioxo-6^1,6^2,6^3,6^4,6^5,6^6-hexahydro-1^1H-8-oxa-1(6,1)-benzo[d]imidazola-6(1,3)-pyridazina-2(3,5)-pyridinacycloundecaphane-4-yl)-3-methylbutanamide]
> 5	≤ 5	C=CC(=O)N1CCN([C@H](C(=O)N[C@H]2Cc3cc(O)cc(c3)-c3ccc4ccn(c4c3)CCCOC(=O)[C@@H]3CCCN(N3)C2=O)C(C)C)C1=O [Compound 93]
0.5 to 5	≤ 5	C=CC(=O)N1CCN(C(C(=O)NC2Cc3cc(O)cc(c3)-c3ccc4c(C#N)cn(c4c3)CCCOC(=O)C3CCCN(N3)C2=O)C(C)C)C1=O (stereo not drawn) [Compound 94]
0.5 to 5	≤ 5	C=CC(=O)N1CCN([C@H](C(=O)N[C@H]2Cc3cc(O)cc(c3)-c3ccc4c(CC#N)cn(c4c3)CCCOC(=O)[C@@H]3CCCN(N3)C2=O)C(C)C)C1=O [Compound 96]
≤ 0.5	5 to 15	CC(C)C(C(=O)NC1Cc2cc(O)cc(c2)-c2ccc3c(C#N)cn(c3c2)CC(C)(C)COC(=O)C2CCCN(N2)C1=O)N(C)C(=O)C1CN(C(=O)CCl)C1 (stereo not drawn) [Compound 98]
0.5 to 5	≤ 5	CC(C)C(C(=O)NC1Cc2cc(O)cc(c2)-c2ccc3c(C#N)cn(c3c2)CCCOC(=O)C2CCCN(N2)C1=O)N(C)C(=O)C1CN(C(=O)CCl)C1 (stereo not drawn) [Compound 101]
0.5 to 5	≤ 5	C=CC(=O)N1CCN([C@H](C(=O)N[C@H]2Cc3cc(O)cc(c3)-c3ccc4nc(CC)n(c4c3)CCCOC(=O)[C@@H]3CCCN(N3)C2=O)C(C)C)C1=O [Compound 141]
> 5	5 to 15	Cc1nc2ccc3cc2n1CC(C)(C)COC(=O)[C@@H]1CCCN(N1)C(=O)[C@@H](NC(=O)[C@H](C(C)C)N(C)C(=O)CN1CC=CC1=O)Cc1cc(O)cc-3c1 [Compound 144]
0.5 to 5	5 to 15	C=CC(=O)N1CC(C(=O)N(C)[C@H](C(=O)N[C@H]2Cc3cc(O)cc(c3)-c3ccc4nc(C)n(c4c3)CC(C)(C)COC(=O)[C@@H]3CCCN(N3)C2=O)C(C)C)C1 [Compound 145]
0.5 to 5	5 to 15	Cc1nc2ccc3cc2n1CC(C)(C)COC(=O)[C@@H]1CCCN(N1)C(=O)[C@@H](NC(=O)[C@H](C(C)C)N1CCN(C(=O)CCl)CC1=O)Cc1cc(O)cc-3c1 [Compound 146]
0.5 to 5	> 15	Cc1nc2ccc3cc2n1C[C@@H](C)COC(=O)[C@@H]1CCCN(N1)C(=O)[C@@H](NC(=O)[C@H](C(C)C)N(C)C(=O)C1CN(C(=O)CCl)C1)Cc1cc(O)cc-3c1 [Compound 148]
0.5 to 5	5 to 15	Cc1nc2ccc3cc2n1CC(C)(C)COC(=O)[C@@H]1CCCN(N1)C(=O)[C@@H](NC(=O)[C@H](C(C)C)N(C)C(=O)CNC(=O)CCl)Cc1cc(O)cc-3c1 [Compound 150]
> 5	5 to 15	CC1=C(C)C(=O)N(CC(=O)N(C)[C@H](C(=O)N[C@H]2Cc3cc(O)cc(c3)-c3ccc4ncn(c4c3)CCCOC(=O)[C@@H]3CCCN(N3)C2=O)C(C)C)C1=O [Compound 153]
0.5 to 5	≤ 5	CC(C)[C@@H](C(=O)N[C@H]1Cc2cc(O)cc(c2)-c2ccc3nc(-c4ccccc4C#N)n(c3c2)CCCOC(=O)[C@@H]2CCCN(N2)C1=O)N(C)C(=O)C1CN(C(=O)CCl)C1 [Compound 167]
≤ 0.5	≤ 5	COc1ccccc1-c1nc2ccc3cc2n1CCCOC(=O)[C@@H]1CCCN(N1)C(=O)[C@@H](NC(=O)[C@H](C(C)C)N(C)C(=O)C1CN(C(=O)CCl)C1)Cc1cc(O)cc-3c1 [Compound 168]
0.5 to 5	5 to 15	CC(C)[C@@H](C(=O)N[C@H]1Cc2cc(O)cc(c2)-c2ccc3nc(C4CCOCC4)n(c3c2)CCCOC(=O)[C@@H]2CCCN(N2)C1=O)N(C)C(=O)C1CN(C(=O)CCl)C1 [Compound 170]
0.5 to 5	5 to 15	CC1=C(C)C(=O)N(CC(=O)N(C)[C@H](C(=O)N[C@H]2Cc3cc(O)cc(c3)-c3ccc4nc(C)n(c4c3)CC(C)(C)COC(=O)[C@@H]3CCCN(N3)C2=O)C(C)C)C1=O [Compound 171]
> 5	≤ 5	C=CC(=O)N1CCN([C@H](C(=O)N[C@H]2Cc3cc(O)cc(c3)-c3ccc4c(=O)n(C)n(c4c3)CCCOC(=O)[C@@H]3CCCN(N3)C2=O)C(C)C)C1=O [Compound 174]
–	≤ 5	CC(C)[C@@H](C(=O)N[C@H]1Cc2cc(O)cc(c2)-c2ccc3ncn(c3c2)CCCOC(=O)[C@@H]2CCCN(N2)C1=O)N(C)C(=O)C1CN(C(=O)CCl)C1 [Compound 234, 1-(2-chloroacetyl)-N-((2S)-1-(((6^3S,4S)-2^5-hydroxy-5,7-dioxo-6^1,6^2,6^3,6^4,6^5,6-hexahydro-1^1H-8-oxa-1(6,1)-benzo[d]imidazola-6(1,3)-pyridazina-2(1,3)-benzenacycloundecaphane-4-yl)amino)-3-methyl-1-oxobutan-2-yl)-N-methylazetidine-3-carboxamide]
